US20160347852A1, “Combination therapy of an anti-CD20 antibody with a Bcl-2 inhibitor and a MDM2 inhibitor” (Hoffmann-La Roche Inc., priority 2015, published 2016)

What was measured:
[1] = tested on: DOHH2 DLBCL xenografts (CD20+, p53 wt); assay: In vivo antitumor efficacy against DOHH2 DLBCL xenografts (Example 1); details: s.c. DOHH-2 xenografts, female SCID beige mice; for TGI % (tumor growth inhibition compared to control): RG7388 30 mg/kg oral, obinutuzumab 10 mg/kg ip once weekly, GDC-0199 100 mg/kg oral, treatment days 13-29
Protocol: The in vivo antitumor efficacy of the CD20 specific antibody obinutuzumab in combination with bcl-2 inhibitor GDC-0199 and MDM2 inhibitor RG7388 was evaluated against DOHH2 DLBCL xenografts (CD20+, p53 wt). As used herein, obinutuzumab is used synonymously with RO5072759 and B-HH6-B-KV1 GE. As used herein, said bcl-2 inhibitor GDC-0199 is the following chemical compound: 4-(4-{[2-(4-chlorophenyl)-4,4-dimethylcyclohex-1-en-1-yl]methyl}piperazin-1-yl)-2-(1H-pyrrolo[2,3-b]pyridin-5-yloxy)-N-({4-[(tetrahydro-2H-pyran-4-ylmethyl)amino]-3-[(trifluoromethyl)sulfonyl]phenyl}sulfonyl)benzamide or a salt or a polymorphic form thereof. As used herein, said MDM2 inhibitor RG7388 is the following chemical compound 4-{[(2R,3S,4R,5S)-4-(4-Chloro-2-fluoro-phenyl)-3-(3-chloro-2-fluoro-phenyl)-4-cyano-5-(2,2-dimethyl-propyl)-pyrrolidine-2-carbonyl]-amino}-3-methoxy-benzoic acid or a salt or a polymorphic form thereof.
CD20 antibody obinutuzumab was provided as stock solution from Roche, Basel, Switzerland. Antibody buffer included histidine. Antibody solution was diluted appropriately in buffer from stock prior injections. MDM2(4) inhibitor was provided as SDP formulation from Roche, Basel, Switzerland and resuspended prior to use. Bcl-2 inhibitor GDC-0199 was provided by GNE, SSF, USA and formulated prior to use.
The original DOHH-2 human B cell NHL cell line (DLBCL) was established at the NCI and purchased from ATCC (Manassas, Va., USA). Expansion of tumor cells for the transplantation was done by the TAP CompacT CellBase Cell Culture Roboter according to the protocol. Tumor cell line was routinely cultured in RPMI 1640 medium, FCS 10% and L-Glutamin 2 mM at 37° C. in a water-saturated atmosphere at 5% CO2. Culture passage was performed with trypsin/EDTA 1× splitting twice/week and passage 2 used for transplantation.
Female SCID beige mice, age 6-7 weeks at arrival, maintained under specific-pathogen-free condition with daily cycles of 12 h light/12 h darkness according to committed guidelines. Experimental study protocol was reviewed and approved by local government. After arrival animals were maintained in animal facility for one week to get accustomed to new environment and for observation. Continuous health monitoring was carried out on regular basis. Diet food and autoclaved water were provided ad libitum.
Animals were controlled daily for clinical symptoms and detection of adverse effects. For monitoring throughout the experiment body weight of animals was documented.
Animal treatment started after randomisation when median tumor size was about 200 mm^3. CD20 antibody obinutuzumab was administered as single agent and in combination at 10 mg/kg ip once weekly on days 13, 21 and 27. The corresponding vehicle was administered on the same days. MDM2(4) inhibitor RG7388 oral treatment at 30 mg/kg was done as single agent and in combination on days 13-17, 20-24 and 27-29. Finally, bcl-2 inhibitor GDC-0199 was given orally at 100 mg/kg on days 13-29 as single agent and in combination.
DOHH-2 human Diffuse Large B-cell Lymphoma (DLBCL) cells (CD20+, p53 wt) were s.c. inoculated with Matrigel onto female SCID beige mice. Tumor bearing mice were randomized 13 days later to the indicated study groups and compound treatment initiated. Tumor bearing animals were treated with vehicle control, with the MDM2(4) inhibitor RO5503781 (RG7388) at 30 mg/kg, with the anti-CD20 antibody obinutuzumab at 10 mg/kg or with bcl-2 inhibitor GDC-0199 (100 mg/kg) as single agent. Furthermore one study group received the triple combination of MDM2 inhibitor RG7388, CD20 antibody obinutuzumab and bcl-2 inhibitor GDC-0199. […] A similar efficacy was noticed after treatment with the bcl-2 inhibitor GDC-0199 (60% TGI), whereas the best efficacy as single agent was achieved after treatment with the anti-CD20 antibody obinutuzumab reaching nearly tumor stasis (TGI 90%).

[2] = tested on: human Z138 mantle cell lymphoma cell line; assay: Antitumor activity of combined treatment, Z138 mantle cell lymphoma xenograft (Example 2); type: in vivo, SCID beige mice; details: for Tumor growth inhibition (TGI) on day 32: SCID beige mice, RO5072759 0.5 mg/kg i.p. q7d, GDC-0199 100 mg/kg p.o. daily, RG7388 100 then 80 mg/kg p.o. daily, day 32 after tumor cell inoculation; for Tumor-free animals on Day 125: number of animals out of 9-10 per group; for Median time to event (Days to reach TV of 1500 mm^3): time-to-event analysis until day 125; for Number of animals with reduced tumor growth or non-responder / Number of animals with tumor regrowth: until day 125
Protocol: Type II anti-CD20 antibody B-HH6-B-KV1 GE (=humanized B-Ly1, glycoengineered B-HH6-B-KV1, see WO 2005/044859 and WO 2007/031875) was provided as stock solution (c=9.4 mg/ml) from GlycArt, Schlieren, Switzerland, in histidine, trehalose and polysorbate 20 buffer. The antibody was diluted with PBS prior to in-vivo application. The Bcl-2 inhibitor GDC-0199 was obtained from Genentech Inc., CA, USA. MDM2(4) antagonist RG7388 (RO5503781) was provided by the Small Molecule Process Research and Development unit, Hoffmann-La Roche, Basel, Switzerland.
The human Z138 mantle cell lymphoma cell line was cultured in DMEM supplemented with 10% fetal bovine serum (PAA Laboratories, Austria) and 2 mM L-glutamine at 37° C. in a water-saturated atmosphere at 5% CO2. For in-vivo xenograft experiments the cells were co-injected with Matrigel.
Female SCID beige mice, age 4-5 weeks at arrival (purchased from Charles River, Sulzfeld, Germany), were maintained in the quarantine part of the animal facility for one week and afterwards under specific-pathogen-free condition with daily cycles of 12 h light/12 h darkness according to guidelines (GV-Solas; Felasa; TierschG). The experimental study protocol was reviewed and approved by Roche and the local government (Regierung von Oberbayern; registration no. 55.2-1-54-2531.2-26-09). Diet food (KLIBA NAFAG 3807) and water (filtered) were provided ad libitum.
Animals were monitored daily for clinical symptoms and detection of adverse effects. During the experiment the body weight of animals was checked two times a week and tumor volume was measured by caliper.
Animal treatment started at the day of randomization 18 days after tumor cell inoculation. Humanized type II anti-CD20 antibody RO5072759 B-HH6-B-KV1 GE (obinutuzumab) was administered as single agent i.p. q7d once weekly (day 18, 25, 32) for 3 weeks at a dosage of 0.5 mg/kg. The bcl-2 inhibitor GDC-0199 was given p.o. once daily (from day 18 to day 36) over 19 days at a dosage of 100 mg/kg. The MDM2 antagonist RG7388 (RO5503781) was given p.o. once daily over 5 days at a dosage of 100 mg/kg (active compound) from day 18 to day 22 and was administered over 12 days at a dosage of 80 mg/kg (active compound) from day 25 to day 36. There was no treatment on day 23 and 24. In the combination groups, RO5072759 B-HH6-B-KV1 GE, MDM2(4) and GDC-0199 were administered at the same dosages and on the same days. The corresponding vehicle was administered on the same days.
To elucidate the long term effects of the various treatments a time-to-event analysis was performed until day 125 after tumor cell inoculation.

| Molecule | npTCR [1] | TGI % (tumor growth inhibition compared to control) [1] | Tumor growth inhibition (TGI) on day 32 [2] | Tumor-free animals on Day 125 [2] | Median time to event (Days to reach TV of 1500 mm^3) [2] | Number of animals with reduced tumor growth or non-responder [2] | Number of animals with tumor regrowth [2] |
| --- | --- | --- | --- | --- | --- | --- | --- |
| CC1(C)CCC(CN2CCN(c3ccc(C(=O)NS(=O)(=O)c4ccc(NCC5CCOCC5)c([N+](=O)[O-])c4)c(Oc4cnc5[nH]ccc5c4)c3)CC2)=C(c2ccc(Cl)cc2)C1 [GDC-0199, 4-(4-{[2-(4-chlorophenyl)-4,4-dimethylcyclohex-1-en-1-yl]methyl}piperazin-1-yl)-N-({3-nitro-4-[(tetrahydro-2H-pyran-4-ylmethyl)amino]phenyl}sulfonyl)-2-(1H-pyrrolo[2,3-b]pyridin-5-yloxy)benzamide, reference compound] | 0.43 | 60% | 53% | 0 | 29 days | 10 | 0 |
| obinutuzumab: afucosylated glyco-engineered humanized B-Ly1 type II anti-CD20 IgG1 antibody, VH SEQ ID NO:7 (B-HH6), VL SEQ ID NO:20 (B-KV1) | 0.17 | 90% | 47% | 2 | 28 days | 8 | 0 |
| COc1cc(C(=O)O)ccc1NC(=O)[C@@H]1N[C@@H](CC(C)(C)C)[C@](C#N)(c2ccc(Cl)cc2F)[C@H]1c1cccc(Cl)c1F [RG7388, 4-{[(2R,3S,4R,5S)-4-(4-Chloro-2-fluoro-phenyl)-3-(3-chloro-2-fluoro-phenyl)-4-cyano-5-(2,2-dimethyl-propyl)-pyrrolidine-2-carbonyl]-amino}-3-methoxy-benzoic acid] | 0.48 | 56% | 67% | 0 | 30 days | 9 | 0 |
